Values after ≈ are worked out from the molar mass of the structure shown. Where two headings read alike, the source gives them in different places.
Experiments:
[1] = system: normal pancreatic cells; assay: Action on growth rate of normal pancreas induced by CCK-8 in hamsters; type: in vivo
Description: (§1) Male hamsters were innoculated in the cheek pouch with a suspension of 1×10^5 tumour cells of a pancreatic adenocarcinoma.
(§2) Fifteen days after this treatment the animals were killed and the normal pancreas and the pancreatic tumours initiated in the cheek pouch were removed and weighed.
(§3) The DNA was extracted and measured by conventional methods.
(§4) The results obtained are given in Table 11 in which they are expressed as average values±S.E.

[2] = Tolerability in parenteral administration; settings: i.v. sodium salt in water up to 1.5 percent, 10 ml/kg (150 mg/kg)
[3] = system: digestive tract; assay: Antispastic activity, vegetable carbon test (speed of transit through stomach and intestine) in mice; type: in vivo; settings: Mus musculus, ip, read-out: A[…] ED50 (dose which reduces the intestinal transit time of the carbon by 50%), intraperitoneally
Description: The anti-spastic activity which the present compounds exert on the whole of the digestive tract is also considerable. Measured in mice with the vegetable carbon test (speed of transit through the stomach and intestine) this activity is illustrated in the following table: […]

[4] = system: guinea pig gall bladders; assay: Anti-CCK-8 activity on guinea-pig gallbladders in situ (in vivo); settings: Cavia porcellus, iv; CCK-8 10 ng/kg i.v.; compound i.v.; read-out: ID50, anti-CCK-8 activity in situ
Description: In order to confirm the evidence of the studies in vitro, several of the more interesting compounds were tested in vivo with the use of guinea-pig gallbladders in situ.
The method used was that described by Ljungberg (Svensk. Farm. Tidskr. 69, 351-354, 1964).
Guinea-pigs having a weight of about 400 g anaesthetised with urethane were used; the substances being tested were administered intravenously (i.v.) into the jugular vein.
The responses of the gallbladder to the substances being tested were detected by means of a force transducer and recorded by means of a microdynamometer. 10 ng/kg of CCK 8 were chosen as the optimum contracting dose. The antagonistic compounds tested were administered in increasing doses so as to enable the calculation of an ID50 value, that is the dose (in mg/kg i.v.) having a 50% inhibiting effect against contractions induced by 10 ng/kg i.v. of CCK-8.

[5] = system: colon of rabbits; assay: Antispastic activity in the colon of rabbits stimulated with CCK-8; type: in vivo, rabbit; set-up: Antispastic activity in colon, EXPERIMENT 1 / Antispastic activity in colon, EXPERIMENT 2: unit not given here; settings: CCK 100 ng/kg
Description: The abdomen of anaesthetised rabbit is cut open to display the tranverse colon. A small balloon full of water is inserted at an established point and connected to a pressure transducer by means of a polyethylene cannula filled with H2 O.
The optimum sensitivity being fixed in relation to the physiological contractions, the products were administered through the femeral vein. Contractions were induced by the administration of 100 ng/kg of CCK.

[6] = system: pancreatitis in mice induced experimentally by cerulein; assay: Pancreatitis induced by cerulein in mice; type: in vivo; settings: for ED50: Mus musculus, ip, cerulein, mice
Description: Adult male mice received six injections of cerulein (Takus) (50 mcg/kg) each hour for six hours.
The compound was administered 30 minutes before each administration of cerulein. Nine hours after the beginning of the treatment, the blood was taken from the rectro-orbitory plexus after anaesthesia with ether, the animals were killed and the pancreas removed and weighed.

[7] = Food consumption in rats treated daily by mouth for three weeks; type: in vivo
Description: (§5) The following tables give the average values of the food consumption and the average weight of each group of animals calculated weekly as well as the Student t value calculated between the various groups treated and the group of control animals. […] Each group received the drug (compound 1) in the doses indicated for three weeks daily by mouth. The drug in the form of the sodium salt was dissolved in water and administered in a volume of 10 ml of H2 O/kg while the control group received an equal volume of the solvent alone.

[8] = system: pancreatic adenocarcinoma; assay: Inhibiting action on rate of growth of a pancreatic adenocarcinoma induced by CCK-8 in hamsters; type: in vivo
Description: as §1, §2, §3, §4

[9] = system: pancreatitis in rats induced experimentally by taurocholate; assay: Pancreatitis induced by sodium taurocolate in rats; type: in vivo; settings: for ED50: Rattus norvegicus, ip, taurocholate, rats
Description: The products under examination were administered intraperitoneally (i.p.) 30 minutes before the operation and 3 hours after the operation. Six hours after the laparatomy the blood was removed from the retro-orbitory plexus after anaesthesia with ether, the animals were killed and the pancreas was removed and weighed. The activity of the serum amylase was determined by the method described above.

[10] = Body weight of rats treated daily by mouth for three weeks; type: in vivo
Description: as §5

[11] = in vivo, sc
[12] = system: guinea-pig gallbladder; assay: Anti-CCK activity on guinea-pig gallbladders in vitro (contraction by CCK-8); settings: Cavia porcellus; CCK-8 10 ng/ml; in vitro
Description: ANTI-CCK ACTIVITY ON GUINEA-PIG GALLBLADDERS IN VITRO A longitudinal strip of guinea-pig gallbladder is placed in a bath for isolated organs in Krebs at a temperature of 32° C. and oxygenated continuously with an oxygen-CO2 mixture (95-[…]). The isometric contractions were detected by means of a force transducer and recorded. […] The results obtained are shown in Table 3 which gives the compounds tested and the IC50 values found which were calculated by the method of regression in a test of at least three experiments for each compound studied.

[13] = compound 1 4 mg/kg + CCK-8 8 mcg/kg

CCCCCN(CCCOC)C(=O)C(CCC(=O)O)NC(=O)c1ccc(Cl)c(Cl)c1 (racemic) [Compound 1]
PANCREATIC DNA ([1]; 4 mg/kg i.p. three times a day): 0.78 ± 0.03 mg
WEIGHT OF THE PANCREAS ([1]; 4 mg/kg i.p. three times a day): 351.2 ± 17.2 mg
PANCREATIC DNA [1, 13]: 0.83 ± 0.06 mg
WEIGHT OF THE PANCREAS [1, 13]: 370.2 ± 12.7 mg
effect on normal pancreatic cells ([1]; in words): atagonises both these actions of CCK-8 to a highly significant extent
haemolysis [2]: without causing haemolysis
ED50 [3]: 12.8 mg/kg
ED50 [4]: 0.11 mg/kg
Antispastic activity in colon, EXPERIMENT 1 ([5]; 0.3 mg/kg i.v.): -20.8
Antispastic activity in colon, EXPERIMENT 2 ([5]; 0.3 mg/kg i.v.): -34.1
Antispastic activity in colon, EXPERIMENT 1 ([5]; 1 mg/kg i.v.): -48.9
Antispastic activity in colon, EXPERIMENT 2 ([5]; 1 mg/kg i.v.): -55.6
Antispastic activity in colon, EXPERIMENT 1 ([5]; 3 mg/kg i.v.): -100.0
Antispastic activity in colon, EXPERIMENT 2 ([5]; 3 mg/kg i.v.): -87.8
ED50 ([5]; Oryctolagus cuniculus, iv): 1.24 mg/kg
AMYLASE IN THE SERUM ([6]; 5 mg/kg ip + cerulein): 29.4 U/ml
INHIBITION OF WEIGHT INCREASE ([6]; 5 mg/kg ip + cerulein): 76.9%
INHIBITION OF WEIGHT INCREASE (pancreas) ([6]; 5 mg/kg ip + cerulein): 42.8%
AMYLASE IN THE SERUM ([6]; 7.5 mg/kg ip + cerulein): 25.6 U/ml
INHIBITION OF WEIGHT INCREASE ([6]; 7.5 mg/kg ip + cerulein): 81.6%
INHIBITION OF WEIGHT INCREASE (pancreas) ([6]; 7.5 mg/kg ip + cerulein): 71.4%
AMYLASE IN THE SERUM ([6]; 10 mg/kg ip + cerulein): 13.2 U/ml
INHIBITION OF WEIGHT INCREASE ([6]; 10 mg/kg ip + cerulein): 97.1%
INHIBITION OF WEIGHT INCREASE (pancreas) ([6]; 10 mg/kg ip + cerulein): 90.5%
ED50 ([6]; read-out: ED50 (inhibition of weight increase)): 4.2 mg/kg
ED50 ([6]; read-out: ED50, inhibition of weight increase of the pancreas): 5.5 mg/kg
increase in the food consumption compared with the controls ([7]; 0.625 mg/kg daily): about 20%
Food consumption ([7]; 0.625 mg/kg os, 1st week): 187.1 ± 6.3 g/week
Food consumption ([7]; 0.625 mg/kg os, 2nd week): 220 ± 3.9 g/week
Food consumption ([7]; 0.625 mg/kg os, 3rd week): 242.5 ± 3.3 g/week
Food consumption ([7]; 1.25 mg/kg os, 1st week): 205 ± 4.6 g/week
Food consumption ([7]; 1.25 mg/kg os, 2nd week): 217.5 ± 3.8 g/week
Food consumption ([7]; 1.25 mg/kg os, 3rd week): 253.5 ± 2.4 g/week
Food consumption ([7]; 2.5 mg/kg os, 1st week): 209.2 ± 3.3 g/week
Food consumption ([7]; 2.5 mg/kg os, 2nd week): 222.2 ± 2.6 g/week
Food consumption ([7]; 2.5 mg/kg os, 3rd week): 270.7 ± 4.5 g/week
increase in the food consumption compared with the controls ([7]; other doses tested (1.25, 2.5 mg/kg)): about 30%
TUMORAL DNA ([8]; 4 mg/kg i.p. three times a day): 0.42
WEIGHT OF THE PANCREATIC CARCINOMA ([8]; 4 mg/kg i.p. three times a day): 105.0 ± 4.1 mg
TUMORAL DNA [8, 13]: 0.44
WEIGHT OF THE PANCREATIC CARCINOMA [8, 13]: 108.8 ± 5.4 mg
effect on growth of a pancreatic adenocarcinoma ([8]; in words): atagonises both these actions of CCK-8 to a highly significant extent
AMYLASE IN THE SERUM ([9]; 5 mg/kg i.p. + taurocholate): 10.4 U/ml
INHIBITION OF AMYLASE INCREASE ([9]; 5 mg/kg i.p. + taurocholate): 47.0%
INHIBITION OF WEIGHT INCREASE ([9]; 5 mg/kg i.p. + taurocholate): 46.1%
AMYLASE IN THE SERUM ([9]; 10 mg/kg i.p. + taurocholate): 9.8 U/ml
INHIBITION OF AMYLASE INCREASE ([9]; 10 mg/kg i.p. + taurocholate): 64.7%
INHIBITION OF WEIGHT INCREASE ([9]; 10 mg/kg i.p. + taurocholate): 84.6%
AMYLASE IN THE SERUM ([9]; 20 mg/kg i.p. + taurocholate): 7.8 U/ml
INHIBITION OF AMYLASE INCREASE ([9]; 20 mg/kg i.p. + taurocholate): 123.5%
INHIBITION OF WEIGHT INCREASE ([9]; 20 mg/kg i.p. + taurocholate): 107.7%
ED50 ([9]; read-out: ED50, inhibition of amylase increase): 7.3 mg/kg
ED50 ([9]; read-out: ED50, inhibition of weight increase): 6.9 mg/kg
body weight ([10]; 0.625 mg/kg os, 1st week): 216.9 ± 3.8 g
body weight ([10]; 0.625 mg/kg os, 2nd week): 267.5 ± 3.9 g
body weight ([10]; 0.625 mg/kg os, 3rd week): 324 ± 3.6 g
body weight ([10]; 0.625 mg/kg os, time 0): 169.3 ± 1.9 g
body weight ([10]; 1.25 mg/kg os, 1st week): 242.7 ± 4.9 g
body weight ([10]; 1.25 mg/kg os, 2nd week): 318.3 ± 4.4 g
body weight ([10]; 1.25 mg/kg os, 3rd week): 371 ± 5.6 g
body weight ([10]; 1.25 mg/kg os, time 0): 168.3 ± 1.1 g
body weight ([10]; 2.5 mg/kg os, 1st week): 241.6 ± 3.7 g
body weight ([10]; 2.5 mg/kg os, 2nd week): 325.2 ± 5.5 g
body weight ([10]; 2.5 mg/kg os, 3rd week): 374.9 ± 5.1 g
body weight ([10]; 2.5 mg/kg os, time 0): 165.8 ± 1.3 g
weight increase compared with control animals ([10]; all treated groups, from the first week, in words): significantly higher weight increase than the control animals
tissue damage [11]: does not moreover give rise to tissue damage
IC50 [12]: 0.1 mg/L (≈ 0.217 µM)

Source: patent publication US4769389A, “Oxygenated-alkyl derivatives of glutamic and aspartic acids with antagonistic activity to bio-active polypeptides and a method for their preparation” (priority 1985, dated 1988)
